This is an account of results in publication PMC3914206.

Holding throughout (assay type): binding
For experiment [1], the target named is T1, panel of 442 kinases (Homo sapiens, UniProt Q9H422).
T1 construct: purchased KINOMEscan
As to conditions: Compound Concentration 10 µM. From the text: (§1) We assessed the selectivity of members of this scaffold using the KINOMEscan methodology across a near comprehensive panel of 442 kinases [[18,27]].

In experiment [2] the target is T2, panel of 442 kinases (Homo sapiens, UniProt Q9P289).
T2 construct: purchased KINOMEscan
As to conditions: Compound Concentration 10 µM.
Source text: as §1

The target in experiment [3] is T3, panel of 442 kinases (Mycobacterium tuberculosis, UniProt P9WI81).
T3 construct: purchased KINOMEscan
As to conditions: Compound Concentration 10 µM.
Source text: as §1

Experiment [4] deals with T4, panel of 442 kinases (Homo sapiens, UniProt Q96SB4).
T4 construct: purchased KINOMEscan
As to conditions: kinase SRPK1; compound concentration 10 µM.
Source text: as §1

T1 sequence (Q9H422 whole entry): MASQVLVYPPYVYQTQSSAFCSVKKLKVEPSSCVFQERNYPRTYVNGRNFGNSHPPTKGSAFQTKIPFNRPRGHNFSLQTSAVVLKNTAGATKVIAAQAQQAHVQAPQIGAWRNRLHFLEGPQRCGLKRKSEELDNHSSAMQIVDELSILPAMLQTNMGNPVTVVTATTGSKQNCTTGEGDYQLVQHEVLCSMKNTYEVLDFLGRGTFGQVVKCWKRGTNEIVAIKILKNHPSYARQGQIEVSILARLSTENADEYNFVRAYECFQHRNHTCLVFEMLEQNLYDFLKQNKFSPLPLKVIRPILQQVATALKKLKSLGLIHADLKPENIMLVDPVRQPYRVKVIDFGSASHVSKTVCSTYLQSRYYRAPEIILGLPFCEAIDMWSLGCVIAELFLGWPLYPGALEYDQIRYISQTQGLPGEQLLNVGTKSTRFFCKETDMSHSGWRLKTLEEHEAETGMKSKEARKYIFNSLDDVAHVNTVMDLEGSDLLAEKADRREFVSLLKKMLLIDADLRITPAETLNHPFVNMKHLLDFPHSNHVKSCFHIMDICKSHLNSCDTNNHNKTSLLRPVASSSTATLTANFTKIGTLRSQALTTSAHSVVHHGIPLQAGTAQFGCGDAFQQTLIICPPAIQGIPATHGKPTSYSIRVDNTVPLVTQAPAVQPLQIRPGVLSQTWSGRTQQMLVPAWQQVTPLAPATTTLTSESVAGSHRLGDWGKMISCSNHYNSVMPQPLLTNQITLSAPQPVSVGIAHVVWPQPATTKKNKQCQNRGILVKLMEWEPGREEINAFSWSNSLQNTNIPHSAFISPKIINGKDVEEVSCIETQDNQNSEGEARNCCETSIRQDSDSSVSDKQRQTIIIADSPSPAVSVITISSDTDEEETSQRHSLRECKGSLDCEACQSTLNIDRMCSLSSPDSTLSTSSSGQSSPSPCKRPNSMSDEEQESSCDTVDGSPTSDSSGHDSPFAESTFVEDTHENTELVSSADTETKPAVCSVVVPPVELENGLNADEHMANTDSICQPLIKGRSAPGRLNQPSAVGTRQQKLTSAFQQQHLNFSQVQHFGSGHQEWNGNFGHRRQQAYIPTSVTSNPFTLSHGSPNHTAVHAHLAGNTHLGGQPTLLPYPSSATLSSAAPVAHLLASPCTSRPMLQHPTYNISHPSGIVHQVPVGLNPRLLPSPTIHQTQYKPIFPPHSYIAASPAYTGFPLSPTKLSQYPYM
T2 sequence (Q9P289 whole entry): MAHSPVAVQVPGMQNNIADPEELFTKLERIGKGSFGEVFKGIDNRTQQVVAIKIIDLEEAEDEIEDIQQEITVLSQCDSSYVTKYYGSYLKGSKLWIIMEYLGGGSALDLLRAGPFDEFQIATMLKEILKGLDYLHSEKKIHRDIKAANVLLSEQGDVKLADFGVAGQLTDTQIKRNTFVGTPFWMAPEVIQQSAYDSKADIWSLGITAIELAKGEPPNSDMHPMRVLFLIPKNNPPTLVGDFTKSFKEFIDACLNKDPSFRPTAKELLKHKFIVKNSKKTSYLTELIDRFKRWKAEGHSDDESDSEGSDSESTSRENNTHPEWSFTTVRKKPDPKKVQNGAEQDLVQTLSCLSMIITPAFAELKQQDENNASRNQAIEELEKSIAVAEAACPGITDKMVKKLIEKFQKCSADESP
T4 sequence (Q96SB4 whole entry): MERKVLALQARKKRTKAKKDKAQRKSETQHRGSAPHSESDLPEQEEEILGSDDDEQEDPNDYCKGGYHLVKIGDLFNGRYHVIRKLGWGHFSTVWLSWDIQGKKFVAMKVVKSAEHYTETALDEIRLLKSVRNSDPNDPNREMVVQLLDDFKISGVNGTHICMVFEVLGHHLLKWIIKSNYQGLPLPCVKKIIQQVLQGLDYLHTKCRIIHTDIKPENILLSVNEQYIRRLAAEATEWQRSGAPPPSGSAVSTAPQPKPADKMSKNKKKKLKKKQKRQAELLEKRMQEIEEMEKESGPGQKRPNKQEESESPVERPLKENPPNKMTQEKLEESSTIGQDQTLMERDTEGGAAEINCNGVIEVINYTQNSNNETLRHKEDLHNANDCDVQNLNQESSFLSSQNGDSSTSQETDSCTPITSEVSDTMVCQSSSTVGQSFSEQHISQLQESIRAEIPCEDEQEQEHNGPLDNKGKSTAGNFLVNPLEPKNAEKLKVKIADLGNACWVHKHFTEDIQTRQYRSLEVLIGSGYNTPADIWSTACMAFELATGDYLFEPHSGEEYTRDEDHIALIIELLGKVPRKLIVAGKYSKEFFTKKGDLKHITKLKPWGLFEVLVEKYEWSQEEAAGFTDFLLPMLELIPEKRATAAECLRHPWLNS
T3 sequence (P9WI81 whole entry): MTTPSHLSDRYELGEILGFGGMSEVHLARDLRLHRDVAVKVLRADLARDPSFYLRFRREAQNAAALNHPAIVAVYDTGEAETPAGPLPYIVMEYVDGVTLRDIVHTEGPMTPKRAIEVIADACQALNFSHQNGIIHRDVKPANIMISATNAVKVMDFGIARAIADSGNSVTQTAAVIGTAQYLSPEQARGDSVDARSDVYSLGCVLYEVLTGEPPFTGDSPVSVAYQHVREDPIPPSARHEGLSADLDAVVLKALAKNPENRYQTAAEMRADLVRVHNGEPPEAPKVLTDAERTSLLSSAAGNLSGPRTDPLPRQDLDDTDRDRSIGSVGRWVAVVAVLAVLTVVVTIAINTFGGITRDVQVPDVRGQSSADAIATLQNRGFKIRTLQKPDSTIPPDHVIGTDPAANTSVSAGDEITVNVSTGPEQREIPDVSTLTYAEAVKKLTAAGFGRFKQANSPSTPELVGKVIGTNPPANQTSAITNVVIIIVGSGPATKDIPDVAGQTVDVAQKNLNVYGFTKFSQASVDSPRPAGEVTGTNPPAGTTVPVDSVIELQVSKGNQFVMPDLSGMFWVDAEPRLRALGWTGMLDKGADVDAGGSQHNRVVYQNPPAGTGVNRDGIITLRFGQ

In the case of `COc1cc(C(=O)N2CCC(N3CCN(C)CC3)CC2)ccc1Nc1ncc2c(n1)N(C)c1ccccc1C(=O)N2C` [15 (LRRK2-IN-1)], the “KINOMEscan: HIPK3” value on panel of 442 kinases [1] was found to be 89. Moreover, at panel of 442 kinases [2], the “KINOMEscan: MST4” value is 95. Further, on panel of 442 kinases [3], the “KINOMEscan: PKNB(M.tuberculosis)” value is recorded as 100. On panel of 442 kinases [4], the “% Ctrl, SRPK1” value was 94 % Ctrl.
Turning to `COc1cc(C(=O)N2CCC(N3CCN(C)CC3)CC2)ccc1Nc1ncc2c(n1)N1CCc3cccc(c31)C(=O)N2C` [Compound 24], the “KINOMEscan: HIPK3” value at panel of 442 kinases [1] is given as 48. Moreover, at panel of 442 kinases [3], the “KINOMEscan: PKNB(M.tuberculosis)” value is on record as 98. Also, the “% Ctrl, SRPK1” value at panel of 442 kinases [4] was 74 % Ctrl.
As to `COc1cc(C(=O)N2CCC(N3CCN(C)CC3)CC2)ccc1Nc1ncc2c(n1)N(C1CCCC1)c1ccccc1C(=O)N2C` [Compound 25, 11-cyclopentyl-2-((2-methoxy-4-(4-(4-methylpiperazin-1-yl)piperidine-1-carbonyl)phenyl)amino)-5-methyl-5H-benzo[e]pyrimido[5,4-b][1,4]diazepin-6(11H)-one], the “KINOMEscan: HIPK3” value at panel of 442 kinases [1] was 100. At panel of 442 kinases [2], the “KINOMEscan: MST4” value was 100. Also, the “KINOMEscan: PKNB(M.tuberculosis)” value on panel of 442 kinases [3] was determined as 100. On panel of 442 kinases [4], the “% Ctrl, SRPK1” value is reported as 90 % Ctrl.
For `CCOc1cc(C(=O)N2CCC(N3CCN(C)CC3)CC2)ccc1Nc1ncc2c(n1)N(C1CCCC1)c1ccccc1C(=O)N2C` [Compound 26], the “KINOMEscan: HIPK3” value on panel of 442 kinases [1] is 92. Moreover, the “KINOMEscan: MST4” value on panel of 442 kinases [2] came to 100. In addition, the “KINOMEscan: PKNB(M.tuberculosis)” value on panel of 442 kinases [3] is 96. The “% Ctrl, SRPK1” value at panel of 442 kinases [4] worked out at 100 % Ctrl.
